{"source": "patent US20250345309A1", "about": "“IMMUNE HEALTH IMPROVERS” (Amazentis SA, priority 2024, published 2025)", "key": {"T cells": {"tested_on": "T cells", "assay": "T cell stimulation assay (αCD3/αCD28 beads, four days)", "format": "in vivo, human", "details": "PBMCs ex vivo", "protocol": "To study the antigen response of T cells, 0.5×10^6 thawed PBMCs were pre-stained with CellTrace Violet (C34557 ThermoFisher Scientific) according to the manufacturer's instructions. After washing, they were plated in a 24 well plate for 24 h to deplete monocyte populations by plastic adherence. Next, cells in suspension were transferred to a new tube and centrifuged at 350 g for 5 min, followed by reconstitution in fresh T cell medium. Cells were stimulated with human αCD3/C28 stimulation beads (Dynabeads, ThermoFirsher) for four days, using a ratio of 25 μl Beads per 0.5×10^6 cells. Following the stimulation period, magnetic beads were discarded via magnetic separation and cells were stained with PE-Cy7 CD4, APC-Cy7CD8, CD45RA FITC, CCR7 AF700 and live/dead ef780. To study cytokine expression, Brefeldin A (Biolegend) was added to stimulated PBMCs for the last 3 hours. Cells were then washed and stained using the panel above, while intracellular staining for cytokine assessment was performed with BD Cytofix/Cytoperm (BD) with 20 min fixation and overnight incubation with αIL-4-CF594, αIFNγ-PE (XMG1.2; 45-7311-82; eBioscience) and αTNFa-APC (MP6-XT22; 563944; BD). Finally, samples were fixed with 1% PFA until data acquisition. To functionally characterize the human immune system after systemic UA supplementation further, proliferative capacity and cytokine secretion of T cells was assessed. PBMCs from both intervention groups were incubated in the presence of αCD3/αCD28 stimulation beads for a total of four days (FIG. 10A)."}, "[1]": {"details": "human, in vivo"}}}
{"compound": "O=c1oc2cc(O)ccc2c2ccc(O)cc12", "note": "[Urolithin A]", "values": [{"measurement": "CD8+ TCM/TEM phenotype distribution after CD3 receptor engagement", "setting": "T cells", "result": "no treatment-specific distribution pattern"}, {"measurement": "T cell proliferation", "setting": "T cells; UA vs placebo, baseline vs d28", "result": "no difference"}, {"measurement": "CD8+ expression of IFN-γ when stimulated", "setting": "T cells; baseline vs d28", "result": "remained unchanged"}, {"measurement": "IL-4 production of antigen challenged CD8+ cells", "setting": "T cells; baseline vs d28, no change with placebo", "result": "reduced"}, {"measurement": "Intensity of adverse events noted during the study", "setting": "[1]", "result": "all mild"}]}
